Results taken from patent USRE32347E, “Hypocalcaemic peptides and process for their manufacture” (Ciba-Geigy Corp., priority 1984, dated 1987).
Ends that are not written are not given here.

Key:
[1] = system: blood calcium level; assay: rat test described by Kumar et al, J. Endocrinology 33, page 470 [1965] (MRC units); assay type: in vivo; details: for result in the rat test according to Kumar et al., in words: compared with HT-C2 / parent peptide
Text: It lowers the plasma calcium level and plasma phosphate level of the blood of mammals, as can be shown by tests on rats weighing 50 to 150 g. […] It may therefore be used for the treatment of hypercalcaemiae and of bone diseases such as Paget's disease or osteoporosis.

[2] = system: calcium level of the blood; assay: calcium level of the blood in patients with increased bone turn over; assay type: in vivo, human; details: intravenous, intramuscular or subcutaneous injection of 0.01 to 5 mg, e.g. in 0.1 molar acetate buffer of pH 4.6

Substance | result in the rat test according to Kumar et al., in words [1] | other results
HT-C1 sulfoxide: sulfoxide obtained from HT-C1 with 5% hydrogenperoxide (CGNLSTCMLGTYTQDFNKFHTFPQTAIGVGAP; ends and bridges not checked; also: dimer (HT-C1, dimer of HT-C2); UniProt P01258 85-116, looked up) | equally active | –
HT-C1: the dimer of HT-C2; active component of human calcitonin (CGNLSTCMLGTYTQDFNKFHTFPQTAIGVGAP; ends and bridges not checked; also: dimer; UniProt P01258 85-116, looked up) | about as good results as the product obtained in Example 1 (HT-C2) | –
HT-C11: active component of human calcitonin from fractions with K=4.0 (CGNLSTCMLGTYTQDFNKFHTFPQTAIGVGAP; ends and bridges not checked; cysteine pairing not given here; UniProt P01258 85-116, looked up) | – | activity ([1]; in the rat, per mg of peptide): 100-200 MRC units per mg
Human calcitonin | – | calcium level of the blood [2]: lowers
